Earlier results as cited in patent US12226415B2, “Methods and compositions for the treatment of hair loss” (Aneira Pharma Inc., priority 2019, dated 2025).
One block for each molecule: values may come before it.

Columns and labels:
human FP receptors = human FP receptors (Homo sapiens, UniProt P43088)
hair growth = settings: for hair growth: McCarey et al. 2004
intraocular pressure = settings: glaucomatous monkey eyes, Gagliuso et al. 2004
[1] = test system: elevated intraocular pressure; settings: some human glaucoma patients non-responsive to latanoprost, Gandolfi 2003
[2] = test system: production of dihydrotestosterone (DHT); settings: oral; including in the prostate gland and the scalp
[3] = propylene glycol, methanol, ethanol and 2-propanol

Sequence of human FP receptors (P43088 whole entry): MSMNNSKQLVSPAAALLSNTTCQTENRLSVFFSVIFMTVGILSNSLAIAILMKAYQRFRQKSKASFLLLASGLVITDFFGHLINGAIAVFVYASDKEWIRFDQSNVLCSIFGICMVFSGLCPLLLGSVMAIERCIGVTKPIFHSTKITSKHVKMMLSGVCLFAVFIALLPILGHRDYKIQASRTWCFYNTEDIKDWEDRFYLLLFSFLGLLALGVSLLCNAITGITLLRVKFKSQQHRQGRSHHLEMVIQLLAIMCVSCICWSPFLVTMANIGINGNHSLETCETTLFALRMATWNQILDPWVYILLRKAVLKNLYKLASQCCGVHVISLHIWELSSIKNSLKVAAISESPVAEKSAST

- potency relative to PGF2α (human FP receptors): twice the potency of PGF2α
Structure (SMILES): O=C(O)CCC/C=C\C[C@@H]1[C@@H](CC[C@@H](O)CCc2ccccc2)[C@H](O)C[C@@H]1O [Latanoprost free acid]

Structure (SMILES): CCCCCCCC(=O)CC[C@@H]1[C@@H](C/C=C\CCCC(=O)OC(C)C)[C@@H](O)C[C@H]1O [Uenoprostone isopropyl ester]
- hair growth (hair growth): no hair growth
- incidence of iris pigmentation and eyelash changes (hair growth; two randomized clinical trials, 0.15%): Low incidence

Structure (SMILES): CCNC(=O)CCC/C=C\C[C@@H]1[C@@H](/C=C/[C@@H](O)CCc2ccccc2)[C@H](O)C[C@@H]1O [bimatoprost]
- effect on elevated intraocular pressure in combination with latanoprost (intraocular pressure): additive
- response in reducing elevated intraocular pressure [1]: responsive

Structure (SMILES): CC(C)(C)NC(=O)[C@H]1CC[C@H]2[C@@H]3CC[C@H]4NC(=O)C=C[C@]4(C)[C@H]3CC[C@]12C [finasteride, (1S,3aS,3bS,5aR,9aR,9bS,11aS)—N-tert-butyl-9a,11a-dimethyl-7-oxo-1,2,3,3a,3b,4,5,5a,6,9b,10,11-dodecahydroindeno[5,4-f]quinoline-1-carboxamide]
- decrease of production of dihydrotestosterone (DHT) [2]: about 70%

- solubility (concentration that can be obtained) [3]: ≥ 5%
Structure (SMILES): CC(C)OC(=O)CCC/C=C\C[C@@H]1[C@@H](CC[C@@H](O)CCc2ccccc2)[C@H](O)C[C@@H]1O [latanoprost, isopropyl ester of 17-phenyl-13,14-dihydro prostaglandin F2a]

Structure (SMILES): CCCCCCCC(=O)CC[C@@H]1[C@@H](C/C=C\CCCC(=O)O)[C@@H](O)C[C@H]1O [uenoprostone free acid]
- hair growth (hair growth): no hair growth
